Measurements: US20240116985A1, “STAPLED PEPTIDES AND METHODS THEREOF” (priority 2020, published 2024)
pIC50: −log10 of the molar value. Read-outs that look alike come from different tables or passages of the source.

Tests used:
[1] = molecular target: T1, full-length beta-Catenin (Uniprot ID P35222) (Homo sapiens, UniProt P35222); experiment: Fluorescence polarization IC50 (beta-catenin / 5FAM-TCF4 10-53 competition); assay type: binding
T1 construct: 10 nM full-length beta-Catenin (Uniprot ID P35222)
T1 sequence (P35222 1-781): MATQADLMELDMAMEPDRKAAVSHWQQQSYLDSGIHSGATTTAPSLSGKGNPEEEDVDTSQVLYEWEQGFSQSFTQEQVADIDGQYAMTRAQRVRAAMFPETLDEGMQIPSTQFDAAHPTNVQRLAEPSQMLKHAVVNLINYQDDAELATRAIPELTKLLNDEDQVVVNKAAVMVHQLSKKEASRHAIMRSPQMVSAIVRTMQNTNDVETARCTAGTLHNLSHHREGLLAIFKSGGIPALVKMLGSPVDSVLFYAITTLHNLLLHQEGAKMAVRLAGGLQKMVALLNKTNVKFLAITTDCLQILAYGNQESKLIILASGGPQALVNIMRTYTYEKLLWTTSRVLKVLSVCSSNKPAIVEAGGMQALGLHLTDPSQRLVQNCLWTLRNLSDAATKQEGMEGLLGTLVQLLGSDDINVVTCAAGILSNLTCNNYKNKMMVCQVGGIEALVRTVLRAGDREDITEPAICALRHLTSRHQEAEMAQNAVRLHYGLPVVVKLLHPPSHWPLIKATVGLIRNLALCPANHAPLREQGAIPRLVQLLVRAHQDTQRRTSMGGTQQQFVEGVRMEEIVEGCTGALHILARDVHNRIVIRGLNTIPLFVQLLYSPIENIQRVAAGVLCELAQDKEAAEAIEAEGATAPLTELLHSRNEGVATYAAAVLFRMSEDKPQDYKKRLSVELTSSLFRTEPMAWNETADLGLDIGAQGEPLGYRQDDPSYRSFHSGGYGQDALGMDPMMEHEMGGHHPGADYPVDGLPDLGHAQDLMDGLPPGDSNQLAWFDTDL

[2] = CHI Log D procedure; assay type: physicochemical
[3] = Table E2-1, read-out: beta-Catenin FP IC50
[4] = fluorescence polarization, beta-catenin, read-out: FP EC50

SMILES: CC(=O)N1CCC[C@]12CC=CCCCC1(CCCC=CCOC(=O)N(C)CCC[C@@](C)(C(=O)N[C@@H](Cc3ccccc3)C(=O)N[C@@H](Cc3c[nH]c4ccccc34)C(=O)N[C@@H](CCC(N)=O)C(N)=O)NC(=O)[C@H](C(C)C)NC(=O)[C@H](Cc3ccccc3)NC(=O)[C@H](C)NC(=O)[C@H](C)NC(=O)[C@H](CC(=O)O)NC(=O)[C@H](CC(=O)O)NC1=O)NC(=O)[C@H](C)NC(=O)[C@H](CC(=O)O)NC2=O (stereo partly drawn) [I-54, Ac-PL3-Asp-Ala-B5-Asp-Asp-Ala-Ala-Phe-Val-SeN-Phe-Trp-Gln-NH2]
- pIC50 [1, 3]: 5.50
- pIC50 [1, 4]: 5.50
- CHI Log D ([2]; pH 7.4): 1.469

SMILES: CC(=O)N1CCC[C@]12CC=CCCCC1(CCCC=CCOC(=O)N(C)CC[C@@](C)(C(=O)N[C@@H](Cc3ccccc3)C(=O)N[C@@H](Cc3c[nH]c4ccccc34)C(=O)N[C@@H](CCC(N)=O)C(N)=O)NC(=O)[C@H](C(C)C)NC(=O)[C@H](Cc3ccccc3)NC(=O)[C@H](C)NC(=O)[C@H](C)NC(=O)[C@H](CC(=O)O)NC(=O)[C@H](CC(=O)O)NC1=O)NC(=O)[C@H](C)NC(=O)[C@H](CC(=O)O)NC2=O (stereo partly drawn) [I-55, Ac-PL3-Asp-Ala-B5-Asp-Asp-Ala-Ala-Phe-Val-SdN-Phe-Trp-Gln-NH2]
- pIC50 [1, 3]: 5.30
- chromatographic logD ([2]; pH 7.4, CHI Log D): 1.35

SMILES: CC(=O)N[C@@H](Cc1ccccc1)C(=O)N[C@@H](CC(=O)O)C(=O)N[C@@H](C)C(=O)N[C@]1(C)CCCCCCC=CCOC(=O)N2CC[C@@](C(=O)N[C@@H](Cc3ccccc3)C(=O)N[C@@H](Cc3c[nH]c4ccccc34)C(=O)N[C@@H](CCC(N)=O)C(N)=O)(C2)NC(=O)[C@H](C(C)C)NC(=O)[C@H](Cc2ccc(F)cc2)NC(=O)[C@H](C)NC(=O)[C@H](C)NC(=O)[C@H](CC(=O)O)NC(=O)[C@H](CC(=O)O)NC1=O [I-78, Ac-Phe-Asp-Ala-R8-Asp-Asp-Ala-Ala-4FF-Val-PyrS-Phe-Trp-Gln-NH2]
- pIC50 [1, 3]: 5.30
- chromatographic logD ([2]; pH 7.4, CHI Log D): 1.24

SMILES: CC(=O)N1CCC[C@]12CC=CCCCC1(CCCC=CCCCCCC[C@@](C)(C(=O)N[C@@H](Cc3ccccc3)C(=O)N[C@@H](Cc3c[nH]c4ccccc34)C(=O)N[C@@H](CCC(N)=O)C(N)=O)NC(=O)[C@H](C(C)C)NC(=O)[C@H](Cc3ccccc3)NC(=O)[C@H](C)NC(=O)[C@H](C)NC(=O)[C@H](CCC(=O)O)NC(=O)[C@H](CC(=O)O)NC1=O)NC(=O)[C@H](C)NC(=O)[C@H](CC(=O)O)NC2=O (stereo partly drawn) [I-123, Ac-PL3-Asp-Ala-B5-Asp-Glu-Ala-Ala-Phe-Val-S8-Phe-Trp-Gln-NH2]
- pIC50 [1, 3]: 5.68
- chromatographic logD ([2]; pH 7.4, CHI Log D): 1.98

SMILES: CC(=O)N1CCC[C@]12CC=CCCCC1(CCCC=CCCCCCC[C@@](C)(C(=O)N[C@@H](Cc3ccccc3)C(=O)N[C@@H](Cc3c[nH]c4ccccc34)C(=O)N[C@@H](CCC(N)=O)C(N)=O)NC(=O)[C@H](C(C)C)NC(=O)[C@H](Cc3ccccc3)NC(=O)[C@H](C)NC(=O)[C@H](C)NC(=O)[C@H](CC(N)=O)NC(=O)[C@H](CC(=O)O)NC1=O)NC(=O)[C@H](C)NC(=O)[C@H](CC(=O)O)NC2=O (stereo partly drawn) [I-125, Ac-PL3-Asp-Ala-B5-Asp-Asn-Ala-Ala-Phe-Val-S8-Phe-Trp-Gln-NH2]
- pIC50 [1, 3]: 5.51
- pIC50 [1, 4]: 5.51
- CHI Log D ([2]; pH 7.4): 2.256

SMILES: CC(=O)N1CCC[C@]12CC=CCCCC1(CCCC=CCOC(=O)N(C)CCC[C@@](C)(C(=O)N[C@@H](Cc3ccccc3)C(=O)N[C@@H](Cc3c[nH]c4ccccc34)C(=O)N[C@@H](CCC(N)=O)C(N)=O)NC(=O)[C@H](C(C)C)NC(=O)[C@H](Cc3ccccc3)NC(=O)[C@H](C)NC(=O)[C@H](C)NC(=O)[C@H](CCC(=O)O)NC(=O)[C@H](CC(=O)O)NC1=O)NC(=O)[C@H](C)NC(=O)[C@H](CC(=O)O)NC2=O (stereo partly drawn) [I-131, Ac-PL3-Asp-Ala-B5-Asp-Glu-Ala-Ala-Phe-Val-SeN-Phe-Trp-Gln-NH2]
- pIC50 [1, 3]: 5.67
- pIC50 [1, 4]: 5.67
- CHI Log D ([2]; pH 7.4): 1.496

SMILES: CC(=O)N1CCC[C@]12CC=CCCCC1(CCCC=CCCCCCC[C@@](C)(C(=O)N[C@@H](Cc3ccccc3)C(=O)N[C@@H](Cc3c[nH]c4ccccc34)C(=O)N[C@@H](C)C(N)=O)NC(=O)[C@H](C(C)C)NC(=O)[C@H](Cc3ccccc3)NC(=O)[C@H](C)NC(=O)[C@H](C)NC(=O)[C@H](CCC(=O)O)NC(=O)[C@H](CC(=O)O)NC1=O)NC(=O)[C@H](C)NC(=O)[C@H](CC(=O)O)NC2=O (stereo partly drawn) [I-135, Ac-PL3-Asp-Ala-B5-Asp-Glu-Ala-Ala-Phe-Val-S8-Phe-Trp-Ala-NH2]
- pIC50 [1, 3]: 5.73
- chromatographic logD ([2]; pH 7.4, CHI Log D): 2.18

SMILES: CC(=O)N1CCC[C@]12CC=CCCCC1(CCCC=CCCCCCC[C@@](C)(C(=O)N[C@@H](Cc3ccccc3)C(=O)N[C@@H](Cc3ccc4ccccc4n3)C(=O)N[C@@H](CCC(N)=O)C(N)=O)NC(=O)[C@H](C(C)C)NC(=O)[C@H](Cc3ccccc3)NC(=O)[C@H](C)NC(=O)[C@H](C)NC(=O)[C@H](CCC(=O)O)NC(=O)[C@H](CC(=O)O)NC1=O)NC(=O)[C@H](C)NC(=O)[C@H](CC(=O)O)NC2=O (stereo partly drawn) [I-143, Ac-PL3-Asp-Ala-B5-Asp-Glu-Ala-Ala-Phe-Val-S8-Phe-Qui-Gln-NH2]
- pIC50 [1, 3]: 5.64
- chromatographic logD ([2]; pH 7.4, CHI Log D): 2.07

SMILES: CC[C@H](C)[C@H](NC(=O)[C@H](CC(=O)O)NC(=O)C(C)(C)NC(C)=O)C(=O)N[C@]1(C)CCN(C)C(=O)OCC=CCCCCC[C@@](C)(C(=O)N[C@@H](Cc2ccccc2)C(=O)N[C@@H](Cc2c[nH]c3ccccc23)C(N)=O)NC(=O)[C@H](CCC(N)=O)NC(=O)[C@H](Cc2ccccc2)NC(=O)[C@H](C)NC(=O)[C@H](C)NC(=O)[C@H](CCC(=O)O)NC(=O)[C@H](CC(=O)O)NC1=O [I-147, Ac-Aib-Asp-Ile-RdN-Asp-Glu-Ala-Ala-Phe-Gln-S7-Phe-Trp-NH2]
- pIC50 [1, 3]: 5.79
- chromatographic logD ([2]; pH 7.4, CHI Log D): 1.4

SMILES: CC[C@H](C)[C@H](NC(=O)[C@H](CC(=O)O)NC(=O)[C@H](C)NC(C)=O)C(=O)N[C@]1(C)CCN(C)C(=O)OCC=CCCCCC[C@@](C)(C(=O)N[C@@H](Cc2ccccc2)C(=O)N[C@@H](Cc2c[nH]c3ccccc23)C(=O)N[C@@H](Cc2c[nH]cn2)C(N)=O)NC(=O)[C@H](C)NC(=O)[C@H](Cc2ccccc2)NC(=O)[C@H](C)NC(=O)[C@H](C)NC(=O)[C@H](CCC(=O)O)NC(=O)[C@H](CC(=O)O)NC1=O [I-152, Ac-Ala-Asp-Ile-RdN-Asp-Glu-Ala-Ala-Phe-Ala-S7-Phe-Trp-His-NH2]
- pIC50 [1, 3]: 5.30
- chromatographic logD ([2]; pH 7.4, CHI Log D): 1.34

SMILES: CC(=O)N1CCC[C@]12CC=CCCCC1(CCCC=CCCCOC(=O)N3CC[C@@](C(=O)N[C@@H](Cc4ccsc4)C(=O)N[C@@H](Cc4csc5ccccc45)C(=O)N[C@@H](CCC(N)=O)C(N)=O)(C3)NC(=O)[C@H](CC(N)=O)NC(=O)[C@H](Cc3ccccc3)NC(=O)[C@H](C)NC(=O)[C@H](C)NC(=O)[C@H](CC(=O)O)NC(=O)[C@H](CC(=O)O)NC1=O)NC(=O)[C@H](CC(C)(C)C)NC(=O)[C@H](CC(=O)O)NC2=O (stereo partly drawn) [I-687, Ac-PL3-Asp-Npg-B5-Asp-Asp-Ala-Ala-Phe-Asn-PyrS2-3Thi-BztA-Gln-NH2]
- CHI Log D ([2]; pH 7.4): 2.035
- logD ([2]; pH 7.4): 2.0

SMILES: CC(=O)N1CCC[C@]12CC=CCCCC1(CCCC=CCCCCCC[C@@](C)(C(=O)N[C@@H](Cc3ccccc3)C(=O)N[C@@H](Cc3csc4ccccc34)C(=O)N(C)[C@@H](Cc3cnc[nH]3)C(N)=O)NC(=O)[C@H](CC(N)=O)NC(=O)[C@H](Cc3ccccc3)NC(=O)[C@H](C)NC(=O)[C@H](C)NC(=O)[C@H](CCC(=O)O)NC(=O)[C@H](CC(=O)O)NC1=O)NC(=O)[C@H](CC(C)C)NC(=O)[C@H](CC(=O)O)NC2=O (stereo partly drawn) [I-746, Ac-PL3-Asp-Leu-B5-Asp-Glu-Ala-Ala-Phe-Asn-S8-Phe-BztA-NMeHis-NH2]
- CHI Log D ([2]; pH 7.4): 2.372

SMILES: CC(=O)N1CCC[C@]12CC=CCCCC1(CCCC=CCCCCCC[C@@](C)(C(=O)N[C@@H](Cc3ccsc3)C(=O)N[C@@H](Cc3csc4ccccc34)C(=O)N[C@@H](CCC(N)=O)C(=O)N[C@H](C)C(=O)N[C@@H](C)C(=O)N[C@@H](C)C(N)=O)NC(=O)[C@H](CC(N)=O)NC(=O)[C@H](Cc3ccccc3)NC(=O)[C@H](C)NC(=O)[C@H](C)NC(=O)[C@H](CC(=O)O)NC(=O)[C@H](CC(=O)O)NC1=O)NC(=O)[C@H](CC(C)(C)C)NC(=O)[C@H](CC(=O)O)NC2=O (stereo partly drawn) [I-875, Ac-PL3-Asp-Npg-B5-Asp-Asp-Ala-Ala-Phe-Asn-S8-3Thi-BztA-Gln-dAla-Ala]
- logD ([2]; pH 7.4, CHI Log D): 2.21

SMILES: COCCOCCC(=O)NCCCC[C@@H]1NC(=O)[C@H](C)NC(=O)[C@H](CC(=O)O)NC(=O)[C@H](CC(=O)O)NC(=O)C2(CCCC=CCCCOC(=O)N3CC[C@@](C(=O)N[C@@H](Cc4ccsc4)C(=O)N[C@@H](Cc4csc5ccccc45)C(=O)N[C@@H](CCC(N)=O)C(N)=O)(C3)NC(=O)[C@H](CC(N)=O)NC(=O)[C@H](Cc3ccccc3)NC1=O)CCCC=CC[C@]1(CCCN1C(C)=O)C(=O)N[C@@H](CC(=O)O)C(=O)N[C@@H](CC(C)(C)C)C(=O)N2 (stereo partly drawn) [I-893, Ac-PL3-Asp-Npg-B5-Asp-Asp-Ala-[mPEG2]Lys-Phe-Asn-PyrS2-3Thi-BztA-Gln-NH2]
- CHI Log D ([2]; pH 7.4): 1.759
